Test results reported in the Kinase Knowledgebase extract (Sharma et al. 2016).

Molecular target: MAPK14 (UniProt Q16539)
Assay: Inhibition of MAPK14 Kinase Activity

Sequence of MAPK14 (Q16539 whole entry, looked up): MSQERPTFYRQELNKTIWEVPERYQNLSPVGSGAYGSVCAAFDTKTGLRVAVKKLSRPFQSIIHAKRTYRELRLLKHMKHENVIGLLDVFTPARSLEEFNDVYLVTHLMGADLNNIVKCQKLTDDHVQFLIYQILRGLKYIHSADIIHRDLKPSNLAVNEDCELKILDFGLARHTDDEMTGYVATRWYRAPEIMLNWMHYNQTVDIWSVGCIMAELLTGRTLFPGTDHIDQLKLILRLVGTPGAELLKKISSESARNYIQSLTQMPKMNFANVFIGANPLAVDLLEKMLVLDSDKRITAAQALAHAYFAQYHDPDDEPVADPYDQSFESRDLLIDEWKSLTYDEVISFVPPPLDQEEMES

Compound | IC50
COc1nc2[nH]cc(C(=O)C(=O)N3CCCC3)c2cc1C(=O)N1CCC(Cc2ccc(F)cc2)CC1 | 50 nM
CCN(C)C(=O)C(=O)c1c[nH]c2nc(OC)c(C(=O)N3CCC(Cc4ccc(F)cc4)CC3)cc12 | 63 nM
COCn1cc(C(=O)C(=O)N2CCCC2)c2cc(C(=O)N3CCC(Cc4ccc(F)cc4)CC3)c(OC)nc21 | 79 nM
COCn1cc(C(=O)C(=O)NC(C)C)c2cc(C(=O)N3C[C@H](C)N(Cc4ccc(F)cc4)C[C@H]3C)c(OC)nc21 | 60 nM
COc1nc2[nH]cc(C(=O)C(=O)NCCO)c2cc1C(=O)N1CCC(Cc2ccc(F)cc2)CC1 | 56 nM
C[C@@H]1CN(Cc2ccc(F)cc2)[C@@H](C)CN1C(=O)c1nc2cc[nH]c2cc1Cl | 66 nM
COCC(=O)c1c[nH]c2nc(OC)c(C(=O)N3CCN(Cc4ccc(F)cc4)C[C@H]3C)cc12 | 76 nM
COCn1ccc2cc(C(=O)N3CCC(Cc4ccc(F)cc4)CC3)c(OC)nc21 | 340 nM
COc1nc2[nH]cc(C(=O)C(=O)N(C)C)c2cc1C(=O)N1CCC(Cc2ccc(F)cc2)CC1 | 60 nM

These reach a lower IC50. Values come first.

IC50 | Compound
41 nM | COc1cc2[nH]ccc2nc1C(=O)N1C[C@H](C)N(Cc2ccc(F)cc2)C[C@H]1C
39 nM | COc1nc2[nH]cc(C(=O)C(=O)NN3CCCC3)c2cc1C(=O)N1CCC(Cc2ccc(F)cc2)CC1
32 nM | COc1nc2[nH]cc(C(=O)C(=O)N3CC[C@@H](O)C3)c2cc1C(=O)N1CCC(Cc2ccc(F)cc2)CC1
35 nM | COc1nc2[nH]ccc2cc1C(=O)N1C[C@H](C)N(Cc2ccc(F)cc2)C[C@H]1C
20 nM | CCNC(=O)C(=O)c1cn(C)c2nc(OC)c(C(=O)N3C[C@H](C)N(Cc4ccc(F)cc4)C[C@H]3C)cc12
44 nM | CNC(=O)C(=O)c1c[nH]c2nc(OC)c(C(=O)N3CCC(Cc4ccc(F)cc4)CC3)cc12
35 nM | COc1nc2c(cc1C(=O)N1CCC(Cc3ccc(F)cc3)CC1)c(C(=O)C(=O)N1CCCC1)cn2C
